Source: patent publication US20100113421A1, “NON-NUCLEOSIDE REVERSE TRANSCRIPTASE INHIBITORS” (priority 2006, published 2010)
Read-outs that look alike come from different tables or passages of the source.

Legend:
[1] = tested on: HIV strain containing the Y181C mutation; test: Spread assay, Y181C mutant strain; format: cell-based
Description: (§1) Assays for the inhibition of acute HIV-1 infection of T-lymphoid cells (alternatively referred to herein as the “spread assay”) were conducted in accordance with Vacca, J. P. et al., Proc. Natl. Acad. Sci. USA 1994, 91: 4096. The assays (using 10% FBS) tested for inhibition of wild type HIV-1 and of HIV strains containing the Y181C or K103N mutation. […] (Note that the compound of Example 6 was tested only up to a 833 nM concentration and the CIC95 value was determined to be >833 nM. The compound of Example 78 was not tested in the Y1818C assay.) The compounds of Examples 1 to 119 (including Examples 70A and 70B) had CIC95 values of less than 1000 nanomolar in the assay employing the K103N mutant strain. In an analogous assay employing a mutant strain containing both the K103N and Y181C mutations, the compounds of Examples 70A, 70B and 78-115 had CIC95 values of less than 1000 nanomolar.

[2] = tested on: mutant strain containing both the K103N and Y181C mutations; test: Spread assay, mutant strain containing both K103N and Y181C; format: cell-based, HIV
Description: as §1

[3] = Human immunodeficiency virus 1, spread assay, 10% FBS, Y181C mutant strain, read-out: CIC95
[4] = Human immunodeficiency virus 1, read-out: CIC95
[5] = Human immunodeficiency virus 1, analogous spread assay, K103N and Y181C double mutant strain, read-out: CIC95

Row | Compound | IC95 [1, 3] | IC95 [1, 4] | IC95 [2, 4] | IC95 [2, 5]
1 | CCCCc1c(C(=O)N(C)Cc2ccc3ncccc3c2)[nH]c(C(N)=O)c1S(=O)(=O)c1cc(Cl)cc(Cl)c1 [Example 70, 3-butyl-4-[(3,5-dichlorophenyl)sulfonyl]-N-methyl-N-(6-quinolinylmethyl)-1H-pyrrole-2,5-dicarboxamide] | < 8 µM | – | – | –
2 | CC(C)c1c(C(=O)N(C)Cc2ccc3ncccc3c2Cl)[nH]c(C(N)=O)c1S(=O)(=O)c1ccccc1 [Example 70A, 3-isopropyl-N-methyl-4-(phenylsulfonyl)-N-[(5-chloroquinolin-6-yl)methyl]-1H-pyrrole-2,5-dicarboxamide] | – | < 8 µM | < 1 µM | –
3 | CC(C)c1c(C(=O)N(C)Cc2cc3cccnc3cc2Cl)[nH]c(C(N)=O)c1S(=O)(=O)c1ccccc1 [Example 70B, 3-isopropyl-N-methyl-4-(phenylsulfonyl)-N-[(7-chloroquinolin-6-yl)methyl]-1H-pyrrole-2,5-dicarboxamide] | – | < 8 µM | < 1 µM | –
4 | Cc1c(C(=O)N(C)Cc2ccc(Cl)cc2Cl)[nH]c(C(=O)NCc2n[nH]c3ccccc23)c1S(=O)(=O)c1ccccc1 [Example 71, N-(2,4-Dichlorobenzyl)-N′-(1H-indazol-3-ylmethyl)-N,3-dimethyl-4-(phenylsulfonyl)-1H-pyrrole-2,5-dicarboxamide] | < 8 µM | – | – | –
5 | CNC(=O)c1[nH]c(C(=O)N(C)Cc2ccc(Cl)cc2Cl)c(C)c1S(=O)(=O)c1ccccc1 [Example 72, N-(2,4-dichlorobenzyl)-N,N′,3-trimethyl-4-(phenylsulfonyl)-1H-pyrrole-2,5-dicarboxamide] | < 8 µM | – | – | –
6 | Cc1cnccc1CNC(=O)c1[nH]c(C(=O)N(C)Cc2ccc(Cl)cc2Cl)c(C)c1S(=O)(=O)c1ccccc1 [Example 73, N-(2,4-dichlorobenzyl)-N,3-dimethyl-N′-[(3-methyl-4-pyridinyl)methyl]-4-(phenylsulfonyl)-1H-pyrrole-2,5-dicarboxamide] | < 8 µM | – | – | –
7 | Cc1c(C(=O)N(C)Cc2ccc(Cl)cc2Cl)[nH]c(C(=O)NCc2ccccn2)c1S(=O)(=O)c1ccccc1 [Example 74, N-(2,4-dichlorobenzyl)-N,3-dimethyl-4-(phenylsulfonyl)-N′-(2-pyridinylmethyl)-1H-pyrrole-2,5-dicarboxamide] | < 8 µM | – | – | –
8 | Cc1c(C(=O)N(C)Cc2ccc(Cl)cc2Cl)[nH]c(C(=O)NCc2cccnc2)c1S(=O)(=O)c1ccccc1 [Example 75, N-(2,4-dichlorobenzyl)-N,3-dimethyl-4-(phenylsulfonyl)-N′-(3-pyridinylmethyl)-1H-pyrrole-2,5-dicarboxamide] | < 8 µM | – | – | –
9 | Cc1c(C(=O)N(C)Cc2ccc(Cl)cc2Cl)[nH]c(C(=O)NCc2nccs2)c1S(=O)(=O)c1ccccc1 [Example 76, N-(2,4-dichlorobenzyl)-N,3-dimethyl-4-(phenylsulfonyl)-N′-(1,3-thiazol-2-ylmethyl)-1H-pyrrole-2,5-dicarboxamide] | < 8 µM | – | – | –
10 | Cc1c(C(=O)N(C)Cc2ccc(Cl)cc2Cl)[nH]c(C(=O)NCc2c(F)cccc2Cl)c1S(=O)(=O)c1ccccc1 [Example 77, N′-(2-chloro-6-fluorobenzyl)-N-(2,4-dichlorobenzyl)-N,3-dimethyl-4-(phenylsulfonyl)-1H-pyrrole-2,5-dicarboxamide] | < 8 µM | – | – | –
11 | Cc1c(C(=O)N2CCCc3ccccc3C2)[nH]c(C(N)=O)c1S(=O)(=O)c1ccccc1 [Example 78, 4-Methyl-3-(phenylsulfonyl)-5-(1,3,4,5-tetrahydro-2H-2-benzazepine-2-ylcarbonyl)-1H-pyrrole-2-carboxamide] | – | – | – | < 1 µM
12 | Cc1cc(C)cc(S(=O)(=O)c2c(C(N)=O)[nH]c(C(=O)N3CCCc4ccccc4C3)c2C)c1 [Example 79, 4-Methyl-3-(3,5-dimethylphenylsulfonyl)-5-(1,3,4,5-tetrahydro-2H-2-benzazepine-2-ylcarbonyl)-1H-pyrrole-2-carboxamide] | < 8 µM | – | – | < 1 µM
13 | Cc1cc(C)cc(S(=O)(=O)c2c(C(N)=O)[nH]c(C(=O)N3CCCc4sccc4C3)c2C)c1 [Example 80, 3-[(3,5-Dimethylphenyl)sulfonyl]-4-methyl-5-(4,6,7,8-tetrahydro-5H-thieno[3,2-c]azepin-5-ylcarbonyl)-1H-pyrrole-2-carboxamide] | < 8 µM | – | – | < 1 µM
14 | COc1ccc2c(c1)CN(C(=O)c1[nH]c(C(N)=O)c(S(=O)(=O)c3cc(Cl)cc(Cl)c3)c1C)CCC2 [Example 81, 3-[(3,5-dichlorophenyl)sulfonyl]-4-methyl-5-(8-methoxy-1,3,4,5-tetrahydro-2H-2-benzazepin-2-ylcarbonyl)-1H-pyrrole-2-carboxamide] | < 8 µM | – | – | < 1 µM
15 | Cc1c(C(=O)N2CCCc3ccc(O)cc3C2)[nH]c(C(N)=O)c1S(=O)(=O)c1cc(Cl)cc(Cl)c1 [Example 82, 3-[(3,5-dichlorophenyl)sulfonyl]-4-methyl-5-(8-hydroxy-1,3,4,5-tetrahydro-2H-2-benzazepin-2-ylcarbonyl)-1H-pyrrole-2-carboxamide] | < 8 µM | – | – | < 1 µM
16 | Cc1c(C(=O)N2CCCc3ccccc3C2)[nH]c(C(N)=O)c1S(=O)(=O)c1cc(Cl)cc(Cl)c1 [Example 83, 3-[(3,5-dichlorophenyl)sulfonyl]-4-methyl-5-(1,3,4,5-tetrahydro-2H-2-benzazepin-2-ylcarbonyl)-1H-pyrrole-2-carboxamide] | < 8 µM | – | – | < 1 µM
17 | Cc1c(C(=O)N2CCCc3sccc3C2)[nH]c(C(N)=O)c1S(=O)(=O)c1cc(Cl)cc(Cl)c1 [Example 84, 3-[(3,5-dichlorophenyl)sulfonyl]-4-methyl-5-(4,6,7,8-tetrahydro-5H-thieno[3,2-c]azepin-5-ylcarbonyl)-1H-pyrrole-2-carboxamide] | < 8 µM | – | – | < 1 µM
18 | COc1ccc2c(c1)CCCN(C(=O)c1[nH]c(C(N)=O)c(S(=O)(=O)c3cc(Cl)cc(Cl)c3)c1C)C2 [Example 85, 3-[(3,5-dichlorophenyl)sulfonyl]-4-methyl-5-(7-methoxy-1,3,4,5-tetrahydro-2H-2-benzazepin-2-ylcarbonyl)-1H-pyrrole-2-carboxamide] | < 8 µM | – | – | < 1 µM
19 | Cc1c(C(=O)N2CCCc3cc(O)ccc3C2)[nH]c(C(N)=O)c1S(=O)(=O)c1cc(Cl)cc(Cl)c1 [Example 86, 3-[(3,5-dichlorophenyl)sulfonyl]-4-methyl-5-(7-hydroxy-1,3,4,5-tetrahydro-2H-2-benzazepin-2-ylcarbonyl)-1H-pyrrole-2-carboxamide] | < 8 µM | – | – | < 1 µM
20 | COc1ccc2c(c1)CCCN(C(=O)c1[nH]c(C(N)=O)c(S(=O)(=O)c3cc(C)cc(C)c3)c1C)C2 [Example 87, 3-[(3,5-dimethylphenyl)sulfonyl]-4-methyl-5-(7-methoxy-1,3,4,5-tetrahydro-2H-2-benzazepin-2-ylcarbonyl)-1H-pyrrole-2-carboxamide] | < 8 µM | – | – | < 1 µM
21 | Cc1cc(C)cc(S(=O)(=O)c2c(C(N)=O)[nH]c(C(=O)N3CCCc4cc(O)ccc4C3)c2C)c1 [Example 88, 3-[(3,5-dimethylphenyl)sulfonyl]-4-methyl-5-(7-hydroxy-1,3,4,5-tetrahydro-2H-2-benzazepin-2-ylcarbonyl)-1H-pyrrole-2-carboxamide] | < 8 µM | – | – | < 1 µM
22 | COc1ccc2c(c1)CN(C(=O)c1[nH]c(C(N)=O)c(S(=O)(=O)c3cc(C)cc(C)c3)c1C)CCC2 [Example 89, 3-[(3,5-dimethylphenyl)sulfonyl]-4-methyl-5-(8-methoxy-1,3,4,5-tetrahydro-2H-2-benzazepin-2-ylcarbonyl)-1H-pyrrole-2-carboxamide] | < 8 µM | – | – | < 1 µM
23 | Cc1cc(C)cc(S(=O)(=O)c2c(C(N)=O)[nH]c(C(=O)N3CCCc4ccc(O)cc4C3)c2C)c1 [Example 90, 3-[(3,5-dimethylphenyl)sulfonyl]-4-methyl-5-(8-hydroxy-1,3,4,5-tetrahydro-2H-2-benzazepin-2-ylcarbonyl)-1H-pyrrole-2-carboxamide] | < 8 µM | – | – | < 1 µM
24 | COc1ccc2c(c1)CN(C(=O)c1[nH]c(C(N)=O)c(S(=O)(=O)c3ccccc3)c1C)CCC2 [Example 91, 3-(phenylsulfonyl)-4-methyl-5-(8-methoxy-1,3,4,5-tetrahydro-2H-2-benzazepin-2-ylcarbonyl)-1H-pyrrole-2-carboxamide] | < 8 µM | – | – | < 1 µM
25 | Cc1c(C(=O)N(C)Cc2ccc(Cl)cc2Cl)[nH]c(C(N)=O)c1S(=O)(=O)N1CCCC1 [Example 116, N-(2,4-dichlorobenzyl)-N,3-dimethyl-4-(1-pyrrolidinylsulfonyl)-1H-pyrrole-2,5-dicarboxamide] | < 8 µM | – | – | –
26 | Cc1c(C(=O)N(C)Cc2ccccc2Cl)[nH]c(C(=O)NCc2ccccn2)c1S(=O)(=O)N1CCCC1 [Example 117, N-(2-chlorobenzyl)-N,3-dimethyl-N′-(2-pyridinylmethyl)-4-(1-pyrrolidinylsulfonyl)-1H-pyrrole-2,5-dicarboxamide] | < 8 µM | – | – | –
27 | Cc1c(C(=O)N(C)Cc2ccc(Cl)cc2Cl)[nH]c(C(N)=O)c1S(=O)(=O)N1CCCCC1 [Example 118, N-(2,4-dichlorobenzyl)-N,3-dimethyl-4-(1-piperidinylsulfonyl)-1H-pyrrole-2,5-dicarboxamide] | < 8 µM | – | – | –
28 | Cc1c(C(=O)N(C)Cc2ccccc2Cl)[nH]c(C(N)=O)c1S(=O)(=O)N1CCCCC1 [Example 119, N-(2-chlorobenzyl)-N,3-dimethyl-4-(1-piperidinylsulfonyl)-1H-pyrrole-2,5-dicarboxamide] | < 8 µM | – | – | –
